Key:
[1] = test system: Human glioma cells (U118); experiment: Differentiation of human glioma cells (U118); assay type: cell-based; conditions: 200 μM
From the text: FIG. 16B. Human glioma cells (U118) are astrocytes of the central nervous system ([…]) that have lost their differentiation (Control). […] This differentiating activity can be involved in neuroregenerative processes necessary for recovery of motor activity.
This effect may be due to the induction of neural projection sprouting necessary to re-establish connections lost by the nerve fibre lesion.

[2] = test system: human brain cancer (SF767), human lung cancer cells (A549), human pancreas cancer cells (BXPC3); experiment: Na-OHOD alone and combined with anti-tumour pharmaceuticals in immune-deprived mice with human tumours; assay type: in vivo; conditions: Na-OHOD 600 mg/kg
Experimental: FIG. 8A. Effect of Na-OHOD (sodium salt of OHOD) and combinations with various pharmaceuticals: temozolomide (TMZ), erlotinib, gemcitabine and cisplatin (cis-Pt) on various types of human cancers in models. Effect of treatments with vehicle (Control), temozolomide (TMZ, 80 mg/kg), Na-OHOD (OHOD, 600 mg/kg) and TMZ plus Na-OHOD (simultaneously at the same doses) for 60 days in immune-deprived mice infected with human brain cancer (SF767).
FIG. 8B. Effect of Na-OHOD (sodium salt of OHOD) and combinations with various pharmaceuticals: temozolomide (TMZ), erlotinib, gemcitabine and cisplatin (cis-Pt) on various types of human cancers in models. Idem, with Na-OHOD (OHOD, 600 mg/kg), erlotinib (Erlotinib, 40 mg/kg), cisplatin (cis-Pt, 100 mg/kg), plus erlotinib (OHO Er) or Na-OHOD plus cisplatin (OHO Pt) in nude mice infected with human lung cancer cells (A549).
FIG. 8C. Effect of Na-OHOD (sodium salt of OHOD) and combinations with various pharmaceuticals: temozolomide (TMZ), erlotinib, gemcitabine and cisplatin (cis-Pt) on various types of human cancers in models. Idem with Na-OHOD (OHOD, 600 mg/kg), Gemcitabine (Gemcitab, 40 mg/kg) or Na-OHOD plus Gemcitabine (OHO Gem) using the same doses in nude mice infected with human pancreas cancer cells (BXPC3). […]

NCI-H460 = experiment: Effect of OHOD on cancer cells in culture (Table 2); assay type: cell-based, human; parameters: key: + [inhibition of growth]; ++ [total halt of growth]; +++ [total removal of tumour cells]; conditions: NCI-H460, Lung (CPNM)
Experimental: (§1) Also, a series of α-derivatives of cis-monounsaturated fatty acids were used to investigate their effectiveness in cancer treatment. Two types of experiment were performed. Firstly, the dependency of the anti-tumour effect on concentration was investigated. To perform these experiments, human lung cancer cells (A549) were cultivated in RPMI medium, supplemented with 10% foetal bovine […], 10 mM Hepes (pH 7.4), 2 mM glutamine, 2 g/l bicarbonate, 1 g/l glucose, 100 units/ml penicillin, 0.1 mg/ml streptomycin, 0.25 μg/ml Amphotericin B, at 37° C. and in the presence of 5% CO2. In a first experimental series, these cells were treated with various concentrations (0-400 μM) of OHOD and MOD11 and the number of cells was determined by flow cytometry (FIG. 3A). […] In a second series, the anti-tumour effectiveness on A549 lung cancer cells was investigated at a single concentration (150 μM) and a time of 48 hours (FIG. 3B). […] Obviously, among the previous molecules, some lacked both modifications on the α-carbon and the double bond in cis configuration (EO, HDO, ODO) and had no therapeutic effect.
(§2) In a second experimental series, designed to discover whether these molecules are effective in treatment of different types of tumours, the effect of OHOD at various concentrations on human cells of different types of cancer was studied. These experiments were performed as described before, except that the M220 and HT-29 cell lines were cultured in DMEM medium and the MDA-MB-231 line was incubated in Leibowitz L-15 medium supplemented with 15% foetal bovine […]. […] Where the nature of the tumour process requires, application can be topical (use on the skin of active products for the treatment of melanoma and other cutaneous abnormalities of cancerous nature), which can be considered as cosmetic treatments when attempts are made to correct aesthetic defects.

SF-268 = experiment: as above; assay type: cell-based, human; parameters: key: + [inhibition of growth]; ++ [total halt of growth]; +++ [total removal of tumour cells]; conditions: SF-268, Glioma
Experimental: as §1, §2

MCF7 = experiment: as above; assay type: cell-based, human; parameters: key: + [inhibition of growth]; ++ [total halt of growth]; +++ [total removal of tumour cells]; conditions: MCF7, Breast
Experimental: as §1, §2

HT-29 = experiment: as above; assay type: cell-based, human; parameters: key to Anti-tumour effect: + [inhibition of growth]; ++ [total halt of growth]; +++ [total removal of tumour cells]; key to Mechanism of action: P [anti-proliferative]; D [differentiation]; A [apoptosis]; conditions: HT-29, Colon
Experimental: as §1, §2

U87-MG = experiment: as above; assay type: cell-based, human; parameters: key to Anti-tumour effect: + [inhibition of growth]; ++ [total halt of growth]; +++ [total removal of tumour cells]; key to Mechanism of action: P [anti-proliferative]; D [differentiation]; A [apoptosis]; conditions: Glioma
Experimental: as §1, §2

MDA-MB-231 = experiment: as above; assay type: cell-based, human; parameters: key to Anti-tumour effect: + [inhibition of growth]; ++ [total halt of growth]; +++ [total removal of tumour cells]; key to Mechanism of action: P [anti-proliferative]; D [differentiation]; A [apoptosis]; conditions: MDA-MB-231, Breast
Experimental: as §1, §2

HeLa = experiment: as above; assay type: cell-based, human; parameters: key to Anti-tumour effect: + [inhibition of growth]; ++ [total halt of growth]; +++ [total removal of tumour cells]; key to Mechanism of action: P [anti-proliferative]; D [differentiation]; A [apoptosis]; conditions: Cervix
Experimental: as §1, §2

T98G = experiment: as above; assay type: cell-based, human; parameters: key to Anti-tumour effect: + [inhibition of growth]; ++ [total halt of growth]; +++ [total removal of tumour cells]; key to Mechanism of action: P [anti-proliferative]; D [differentiation]; A [apoptosis]; conditions: Glioma
Experimental: as §1, §2

SMILES | differentiation of glioma cells [1] | anti-tumour effectiveness of Na-OHOD alone vs temozolomide, erlotinib, gemcitabine, cisplatin [2] | Anti-tumour effect (NCI-H460) | Anti-tumour effect (SF-268) | Anti-tumour effect (MCF7) | Anti-tumour effect (HT-29) | Mechanism of action (HT-29) | Anti-tumour effect (U87-MG) | Mechanism of action (U87-MG) | Anti-tumour effect (MDA-MB-231) | Mechanism of action (MDA-MB-231) | Anti-tumour effect (HeLa) | Mechanism of action (HeLa) | Anti-tumour effect (T98G) | Mechanism of action (T98G)
CCCCCCCC/C=C\CCCCCCC(O)C(=O)[O-].[Na+] (stereo not drawn) [Na-OHOD] | differentiate and develop towards the glial phenotype | more effective | – | – | – | – | – | – | – | – | – | – | – | – | –
CCCCCCCC/C=C\CCCCCCC(O)C(=O)O (stereo not drawn) [OHOD, α-Hydroxy-cis-Δ9-octadecenoic] | – | – | +++ | +++ | +++ | ++ | A | +++ | D | ++ | A | +++ | A | +++ | D

From patent US9730906B2, “α-derivatives of cis-monounsaturated fatty acids for use as medicines” (UNIVERSITAT DE LES ILLES BALEARS, priority 2008, dated 2017)
